From patent publication US8471005B2 (Cephalon, Inc., priority 2008, dated 2013)
Where two headings read alike, the source gives them in different places.

Key:
ALK = target: T1, ALK (Homo sapiens, UniProt Q9UM73); assay: ALK Kinase Assay (ELISA/TRF, PLC-γ substrate); format: biochemical; conditions: read-out: ALK Potency
T1 construct: host or cells: baculovirus expression system
Method in brief: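 Read-out is time-resolved fluorescence from a Eu-N1-labeled PT66 antibody that binds phosphorylated PLC-γ, the substrate coated at 10 μg/mL in TBS. ALK at 30 ng/ml starts the reaction, which runs 15 minutes at 37° C.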

JAK2 = target: T2, JAK2 (Homo sapiens, UniProt O60674); assay: Recombinant Human JAK2 Kinase Assay (TRF); format: biochemical; conditions: read-out: JAK2 Potency
T2 construct: host or cells: baculovirus expression system
T2 sequence (O60674 whole entry): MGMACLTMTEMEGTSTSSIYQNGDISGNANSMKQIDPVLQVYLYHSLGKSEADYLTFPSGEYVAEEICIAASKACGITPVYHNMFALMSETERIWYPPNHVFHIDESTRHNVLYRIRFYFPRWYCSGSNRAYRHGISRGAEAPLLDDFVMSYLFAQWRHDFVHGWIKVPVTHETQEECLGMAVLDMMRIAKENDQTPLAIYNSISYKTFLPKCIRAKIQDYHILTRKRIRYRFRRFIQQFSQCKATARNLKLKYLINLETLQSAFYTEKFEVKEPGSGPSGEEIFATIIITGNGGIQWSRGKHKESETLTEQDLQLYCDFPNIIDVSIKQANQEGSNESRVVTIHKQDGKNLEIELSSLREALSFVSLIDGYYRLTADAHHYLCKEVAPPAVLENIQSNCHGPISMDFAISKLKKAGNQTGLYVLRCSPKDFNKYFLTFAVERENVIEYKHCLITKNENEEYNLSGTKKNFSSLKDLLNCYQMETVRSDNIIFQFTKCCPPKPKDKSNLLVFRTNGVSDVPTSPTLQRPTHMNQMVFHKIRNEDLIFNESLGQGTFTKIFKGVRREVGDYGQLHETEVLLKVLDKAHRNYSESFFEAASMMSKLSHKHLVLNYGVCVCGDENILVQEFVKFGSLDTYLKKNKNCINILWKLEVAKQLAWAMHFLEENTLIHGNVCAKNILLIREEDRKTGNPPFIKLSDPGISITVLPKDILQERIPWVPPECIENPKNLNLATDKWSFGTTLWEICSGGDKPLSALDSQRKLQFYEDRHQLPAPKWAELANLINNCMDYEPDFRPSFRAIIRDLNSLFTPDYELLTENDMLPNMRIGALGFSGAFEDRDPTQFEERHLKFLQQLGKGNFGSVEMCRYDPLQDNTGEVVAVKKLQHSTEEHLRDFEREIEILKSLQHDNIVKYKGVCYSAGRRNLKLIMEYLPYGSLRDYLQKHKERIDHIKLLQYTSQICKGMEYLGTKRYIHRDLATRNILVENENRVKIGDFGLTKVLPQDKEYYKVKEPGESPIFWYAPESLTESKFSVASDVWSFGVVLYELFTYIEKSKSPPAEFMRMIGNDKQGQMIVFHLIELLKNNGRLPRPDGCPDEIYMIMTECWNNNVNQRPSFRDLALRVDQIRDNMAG
Method in brief: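 Baculovirus-expressed JAK2 (15 ng/ml) phosphorylated a biotinylated 15-mer peptide captured on Neutravidin-coated plates, in 20 mM HEPES pH 7.2 with 0.2 μM ATP, 1 mM MnCl2, 0.1% BSA and 2.5% DMSO. Reaction ran 20 min at room temperature; phosphopeptide was detected by time-resolved fluorescence with Eu-N1-labelled PY100 antibody.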

[1] = ALK kinase inhibition, 1 μM ATP
[2] = JAK2 kinase inhibition, 0.2 μM ATP

T1 sequence (Q9UM73 19-1620): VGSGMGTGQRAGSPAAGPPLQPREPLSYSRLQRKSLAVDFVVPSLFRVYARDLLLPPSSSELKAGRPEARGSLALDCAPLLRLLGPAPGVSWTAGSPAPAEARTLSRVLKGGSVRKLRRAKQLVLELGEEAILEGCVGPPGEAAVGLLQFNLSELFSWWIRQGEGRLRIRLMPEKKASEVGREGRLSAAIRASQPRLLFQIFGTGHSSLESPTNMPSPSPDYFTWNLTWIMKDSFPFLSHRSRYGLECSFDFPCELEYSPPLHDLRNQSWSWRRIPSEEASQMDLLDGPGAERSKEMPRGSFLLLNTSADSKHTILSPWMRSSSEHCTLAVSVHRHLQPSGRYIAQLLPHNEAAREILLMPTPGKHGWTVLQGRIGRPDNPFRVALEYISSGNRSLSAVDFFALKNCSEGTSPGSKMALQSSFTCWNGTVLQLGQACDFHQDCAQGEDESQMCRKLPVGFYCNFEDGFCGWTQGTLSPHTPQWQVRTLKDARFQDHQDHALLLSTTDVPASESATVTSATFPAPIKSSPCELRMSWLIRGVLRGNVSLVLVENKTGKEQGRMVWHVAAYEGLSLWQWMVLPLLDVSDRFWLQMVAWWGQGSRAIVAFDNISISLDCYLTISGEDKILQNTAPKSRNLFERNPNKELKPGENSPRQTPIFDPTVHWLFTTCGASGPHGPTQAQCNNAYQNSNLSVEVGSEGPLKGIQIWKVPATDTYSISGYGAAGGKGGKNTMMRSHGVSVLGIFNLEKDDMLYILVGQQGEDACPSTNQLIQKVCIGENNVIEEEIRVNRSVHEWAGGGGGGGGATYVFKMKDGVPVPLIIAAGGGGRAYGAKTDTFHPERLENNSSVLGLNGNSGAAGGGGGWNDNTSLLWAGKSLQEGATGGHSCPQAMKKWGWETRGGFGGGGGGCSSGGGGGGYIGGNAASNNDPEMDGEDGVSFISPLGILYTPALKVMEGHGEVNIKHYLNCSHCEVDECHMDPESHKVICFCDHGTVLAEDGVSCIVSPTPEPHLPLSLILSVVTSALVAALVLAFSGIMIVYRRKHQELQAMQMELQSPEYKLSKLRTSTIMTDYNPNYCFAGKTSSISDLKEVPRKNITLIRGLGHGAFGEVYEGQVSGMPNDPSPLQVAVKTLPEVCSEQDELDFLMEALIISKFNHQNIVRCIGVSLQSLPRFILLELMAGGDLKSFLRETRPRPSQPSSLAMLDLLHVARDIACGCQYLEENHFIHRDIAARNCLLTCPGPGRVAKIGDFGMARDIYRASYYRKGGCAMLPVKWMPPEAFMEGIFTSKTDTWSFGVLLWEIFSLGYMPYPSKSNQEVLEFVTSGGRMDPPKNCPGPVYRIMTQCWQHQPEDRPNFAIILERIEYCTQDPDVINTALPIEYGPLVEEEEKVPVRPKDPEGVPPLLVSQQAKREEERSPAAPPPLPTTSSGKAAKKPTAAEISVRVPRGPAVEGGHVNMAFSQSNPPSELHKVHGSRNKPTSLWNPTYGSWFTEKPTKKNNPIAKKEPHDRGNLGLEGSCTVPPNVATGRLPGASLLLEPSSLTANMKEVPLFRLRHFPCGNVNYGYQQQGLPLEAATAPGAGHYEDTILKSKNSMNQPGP

Row | Compound | IC50 (ALK; ALK Kinase Inhibition) | IC50 (JAK2; JAK2 Kinase Inhibition) | IC50 (ALK; [1]) | IC50 (JAK2; [2])
1 | Cn1cc(-c2ccc3cnc(Nc4ccc(N5CCOCC5)cc4)nn23)cn1 [Example 10, [7-(1-Methyl-1H-pyrazol-4-yl)-pyrrolo[2,1-f][1,2,4]triazin-2-yl]-(4-morpholin-4-yl-phenyl)-amine] | 1000 to 10000 nM | < 100 nM | – | –
2 | CN1CCN(c2cccc(Nc3ncc4ccc(NCc5ccncc5)n4n3)c2)CC1 [Example 1167, N(2)-[3-(4-Methyl-piperazin-1-yl)-phenyl]-N(7)-pyridin-4-ylmethyl-pyrrolo[2,1-f][1,2,4]triazine-2,7-diamine] | – | – | > 10000 nM | 100 to 1000 nM
3 | CC(C)(C)NS(=O)(=O)c1cccc(-c2ccc3cnc(Nc4ccc5c(c4)NC(=O)C5)nn23)c1 [Example 652, N-tert-Butyl-3-[2-(2-oxo-2,3-dihydro-1H-indol-6-ylamino)-pyrrolo[2,1-f][1,2,4]triazin-7-yl]-benzenesulfonamide] | – | – | 1000 to 10000 nM | < 100 nM
4 | COc1cc2c(cc1Nc1ncc3ccc(-c4cccc5c4OCC5)n3n1)CCN(C[C@@H](C)O)CC2 [Example 522, (R)-1-{7-[7-(2,3-Dihydro-benzofuran-7-yl)-pyrrolo[2,1-f]triazin-2-ylamino]-8-methoxy-1,2,4,5-tetrahydro-benzo[d]azepin-3-yl}-propan-2-ol] | – | – | < 100 nM | 100 to 1000 nM
5 | CN1CCOc2ccc(Nc3ncc4ccc(-c5cccc(NS(C)(=O)=O)c5)n4n3)cc21 [Example 643, N-{3-[2-(4-Methyl-3,4-dihydro-2H-benzo[1,4]oxazin-6-ylamino)-pyrrolo[2,1-f][1,2,4]triazin-7-yl]-phenyl}methanesulfonamide] | – | – | 100 to 1000 nM | < 100 nM
6 | CS(=O)(=O)c1ccc(-c2ccc3cnc(Nc4ccc5nc[nH]c5c4)nn23)cc1 [Example 1304, (3H-Benzimidazol-5-yl)-[7-(4-methanesulfonyl-phenyl)-pyrrolo[2,1-f][1,2,4]triazin-2-yl]-amine] | – | – | 100 to 1000 nM | < 100 nM
7 | C[S+]([O-])c1ccccc1-c1ccc2cnc(Nc3ccc(N4CCOCC4)cc3)nn12 (stereo not shown) [Example 405, [7-(2-Methanesulfinyl-phenyl)-pyrrolo[2,1-f][1,2,4]triazin-2-yl]-(4-morpholin-4-yl-phenyl)-amine] | 1000 to 10000 nM | < 100 nM | – | –
8 | COc1cc(C2CCN(Cc3ncc[nH]3)CC2)ccc1Nc1ncc2ccc(-c3ccccc3OC)n2n1 [Example 868, {4-[1-(1H-Imidazol-2-ylmethyl)-piperidin-4-yl]-2-methoxy-phenyl}-[7-(2-methoxy-phenyl)-pyrrolo[2,1-f][1,2,4]triazin-2-yl]-amine] | – | – | < 100 nM | 100 to 1000 nM
9 | Fc1ccc(Nc2ncc3ccc(-c4cccnc4)n3n2)cc1N1CCOCC1 [Example 391, (4-Fluoro-3-morpholin-4-yl-phenyl)-(7-pyridin-3-yl-pyrrolo[2,1-f][1,2,4]triazin-2-yl)-amine] | 1000 to 10000 nM | < 100 nM | – | –
10 | COc1cc2c(cc1Nc1ncc3ccc(-c4cccc(S(=O)(=O)NC(C)(C)C)c4)n3n1)CCN(C[C@H](C)O)CC2 [Example 701] | – | – | < 100 nM | 100 to 1000 nM
11 | CON=C1CCC(c2ccc(Nc3ncc4ccc(-c5cccc(S(=O)(=O)NC(C)(C)C)c5)n4n3)cc2)CC1 (stereo not shown) [Example 571, N-tert-Butyl-3-{2-[4-(4-methoxyimino-cyclohexyl)-phenylamino]-pyrrolo[2,1-f][1,2,4]triazin-7-yl}-benzenesulfonamide] | – | – | > 10000 nM | < 100 nM
12 | CN(c1ccccc1-c1ccc2cnc(Nc3ccc4cn[nH]c4c3)nn12)S(C)(=O)=O [Example 1337, N-{2-[2-(1H-Indazol-6-ylamino)-pyrrolo[2,1-f][1,2,4]triazin-7-yl]-phenyl}-N-methyl-methanesulfonamide] | – | – | 100 to 1000 nM | < 100 nM
13 | COc1cc(C2CCN(C3COC3)CC2)ccc1Nc1ncc2ccc(-c3ccccc3N(C)S(C)(=O)=O)n2n1 [Example 828, N-(2-{2-[2-Methoxy-4-(1-oxetan-3-yl-piperidin-4-yl)-phenylamino]-pyrrolo[2,1-f][1,2,4]triazin-7-yl}-phenyl)-N-methyl-methanesulfonamide] | – | – | < 100 nM | 1000 to 10000 nM
14 | CC(C)C(=O)Nc1cccc(Nc2ncc3ccc(-c4cnn(C)c4)n3n2)c1 [Example 963, N-{3-[7-(1-Methyl-1H-pyrazol-4-yl)-pyrrolo[2,1-f][1,2,4]triazin-2-ylamino]-phenyl}-isobutyramide] | – | – | 1000 to 10000 nM | < 100 nM
15 | CN(c1ncccc1-c1ccc2cnc(Nc3ccc(C4CCN(CC(N)=O)CC4)cc3)nn12)S(C)(=O)=O [Example 1258, 2-[4-(4-{7-[2-(Methanesulfonyl-methyl-amino)-pyridin-3-yl]-pyrrolo[2,1-f][1,2,4]triazin-2-ylamino}-phenyl)-piperidin-1-yl]-acetamide] | – | – | < 100 nM | < 100 nM
16 | CN1CCN(c2ccc(Nc3ncc4c(-c5cccc(F)c5)ccn4n3)cc2)CC1 [Example 730, [5-(3-Fluoro-phenyl)-pyrrolo[2,1-f][1,2,4]triazin-2-yl]-[4-(4-methyl-piperazin-1-yl)-phenyl]-amine] | – | – | > 10000 nM | 1000 to 10000 nM
17 | CN(c1ccccc1-c1ccc2cnc(Nc3ccc4[nH]ncc4c3)nn12)S(C)(=O)=O [Example 1338, N-{2-[2-(1H-Indazol-5-ylamino)-pyrrolo[2,1-f][1,2,4]triazin-7-yl]-phenyl}-N-methyl-methanesulfonamide] | – | – | 100 to 1000 nM | < 100 nM

The remaining lines, values ahead:

Row | IC50 (ALK; ALK Kinase Inhibition) | IC50 (JAK2; JAK2 Kinase Inhibition) | IC50 (ALK; [1]) | IC50 (JAK2; [2]) | Compound
18 | < 100 nM | < 100 nM | – | – | COc1ccccc1-c1ccc2cnc(Nc3ccc(OCCN4CCOCC4)cc3)nn12 [Example 128, [7-(2-Methoxy-phenyl)-pyrrolo[2,1-f][1,2,4]triazin-2-yl]-[4-(2-morpholin-4-yl-ethoxy)-phenyl]-amine]
19 | < 100 nM | < 100 nM | – | – | CN1CCN(C2CCCN(c3ccc(Nc4ncc5ccc(-c6cccc(Cl)c6)n5n4)cc3)C2)CC1 (stereo not shown) [Example 350, [7-(3-Chloro-phenyl)-pyrrolo[2,1-f][1,2,4]triazin-2-yl]-{4-[3-(4-methyl-piperazin-1-yl)-piperidin-1-yl]-phenyl}-amine]
20 | – | – | < 100 nM | 100 to 1000 nM | COc1cc(N(C)C(=O)CN2CCOCC2)ccc1Nc1ncc2ccc(-c3ccccc3OC)n2n1 [Example 472, N-{3-Methoxy-4-[7-(2-methoxy-phenyl)-pyrrolo[2,1-f][1,2,4]triazin-2-ylamino]-phenyl}-N-methyl-2-morpholin-4-yl-acetamide]
21 | 100 to 1000 nM | < 100 nM | – | – | COc1ccc(Cl)cc1-c1ccc2cnc(Nc3ccc(C(=O)N4CCN(C)CC4)cc3)nn12 [Example 319, {4-[7-(5-Chloro-2-methoxy-phenyl)-pyrrolo[2,1-f][1,2,4]triazin-2-ylamino]-phenyl}-(4-methyl-piperazin-1-yl)-methanone]
22 | > 10000 nM | < 100 nM | – | – | COc1ccc(-c2ccc3cnc(Nc4ccc(C(=O)N5CCOCC5)cc4)nn23)cn1 [Example 1406, {4-[7-(6-Methoxy-pyridin-3-yl)-pyrrolo[2,1-f][1,2,4]triazin-2-ylamino]-phenyl}-morpholin-4-yl-methanone]
23 | 100 to 1000 nM | < 100 nM | – | – | CN1CCN(C(=O)C(F)(F)c2ccc(Nc3ncc4ccc(-c5cccc(S(=O)(=O)NC(C)(C)C)c5)n4n3)cc2)CC1 [Example 1515, N-tert-Butyl-3-(2-{4-[1,1-difluoro-2-(4-methyl-piperazin-1-yl)-2-oxo-ethyl]-phenylamino}-pyrrolo[2,1-f][1,2,4]triazin-7-yl)-benzenesulfonamide]
24 | 100 to 1000 nM | < 100 nM | – | – | CN1CCN(c2ccc(Nc3ncc4ccc(-c5ccc(S(C)(=O)=O)cc5)n4n3)cc2)CC1 [Example 59, [7-(4-Methanesulfonyl-phenyl)-pyrrolo[2,1-f][1,2,4]triazin-2-yl]-[4-(4-methyl-piperazin-1-yl)-phenyl]-amine]
25 | 100 to 1000 nM | < 100 nM | – | – | O=C(NCCCN1CCCC1)c1ccc(-c2ccc3cnc(Nc4ccc(N5CCOCC5)cc4)nn23)cc1 [Example 54, 4-[2-(4-Morpholin-4-yl-phenylamino)-pyrrolo[2,1-f][1,2,4]triazin-7-yl]-N-(3-pyrrolidin-1-yl-propyl)-benzamide]
26 | 100 to 1000 nM | < 100 nM | – | – | COc1ccccc1-c1ccc2cnc(Nc3ccc(N4CCOCC4)cc3F)nn12 [Example 370, (2-Fluoro-4-morpholin-4-yl-phenyl)-[7-(2-methoxy-phenyl)-pyrrolo[2,1-f][1,2,4]triazin-2-yl]-amine]
27 | < 100 nM | < 100 nM | – | – | CN1CCN(CC2CCN(c3ccc(Nc4ncc5ccc(-c6ccccc6N(C)S(C)(=O)=O)n5n4)cc3)CC2)CC1 [Example 450, N-Methyl-N-[2-(2-{4-[4-(4-methyl-piperazin-1-ylmethyl)-piperidin-1-yl]-phenylamino}-pyrrolo[2,1-f][1,2,4]triazin-7-yl)-phenyl]-methanesulfonamide]
28 | 1000 to 10000 nM | < 100 nM | – | – | COc1ccccc1-c1ccc2cnc(Nc3cccc(C(=O)N4CCOCC4)c3)nn12 [Example 327, {3-[7-(2-Methoxy-phenyl)-pyrrolo[2,1-f][1,2,4]triazin-2-ylamino]-phenyl}-morpholin-4-yl-methanone]
29 | 1000 to 10000 nM | < 100 nM | – | – | CN1CCN(Cc2nc3cc(Nc4ncc5ccc(-c6ccc(S(C)(=O)=O)cc6)n5n4)ccc3[nH]2)CC1 [Example 1542, [7-(4-Methanesulfonyl-phenyl)-pyrrolo[2,1-f][1,2,4]triazin-2-yl]-[2-(4-methyl-piperazin-1-ylmethyl)-1H-benzimidazol-5-yl]-amine]
